{"source": "patent US9828344B2", "about": "“Inhibitors of the notch signaling pathway and secretion for use in medicine” (Leibniz-Institut für Altersforschung Fritz-Lipmann-Institut …, priority 2012, dated 2017)", "key": {"[1]": {"tested_on": "COPII vesicles", "assay": "In vitro COPII budding assay with permeabilized cells", "format": "biochemical", "details": "for budding of COPII vesicles after pretreatment of cells: cells pretreated with FLI-06 for 4 hours"}, "[2]": {"tested_on": "endocytosis", "assay": "Transferrin uptake assay", "format": "cell-based", "experimental": "FIG. 13: FLI-06 causes dispersal of early Golgi and TGN, but no tubulation of endosomes. Hela cells were incubated with DMSO or 10 iM FLI-06 or 1 ig/ml BFA for 18 h, fixed, stained with antibodies as indicated and imaged by fluorescence microscopy. Endosomes were visualized by adding Alexa555-labelled transferrin on ice and chasing for 15 min at 37° C. in the presence of indicated compounds. Arrows indicated tubulating endosomes, scalebar 10 im.\nFor the transferrin uptake assay cells were starved in serum free medium for 1 h at 37° C. Cells were then transferred on ice and medium was exchanged to serum free medium supplemented with 25 μg/ml AlexaFluor555-Transferrin conjugate (Molecular Probes) and test compounds. After 15 min on ice cells were incubated with pre-warmed serum-supplemented medium containing test compounds and incubated at 37° C."}, "[3]": {"tested_on": "Golgi apparatus", "assay": "Immunofluorescence of Golgi and early secretory pathway markers in HeLa cells", "format": "cell-based"}, "[4]": {"tested_on": "ER", "assay": "ER tubule-to-sheet live-cell imaging in COS cells (prlss-KDEL-mRFP)", "format": "cell-based", "experimental": "FIG. 7: FLI-06 induces ER sheet formation. A) COS cells transfected with prlss-KDEL-mRFP were incubated with 10 μM FLI-06 for indicated times and imaged by live-cell microscopy. The inserts are magnifications of the boxed areas. B) Images from cells treated as in A) were scored for the percentage of cells that lost most of their ER-tubules. For each time point 40-60 cells were counted. Data represent mean percentages, error bars SEM, n=3 independent experiments.\nFIG. 16: Only ER exit inhibitors convert ER tubules to sheets. COS cells plated on LabTek chambered coverslips were transiently transfected with the ER-marker prlss-KDEL-mRFP, incubated the next day for 2 h with 10 iM of indicated compounds and imaged by live-cell microscopy. […] FLI-06+CHX, cells were additionally incubated in 40 iM cycloheximide. Nife, nifedipine; nimo, nimodipine. Numbers refer to numbering in FIG. 5a.\nWe noted a morphological change of the ER upon FLI-06 incubation that was difficult to capture in fixed cells. Live-cell imaging was therefore performed in COS cells transfected with the ER marker prlss-KDEL-mRFP (supp. Ref 3) and FLI-06 was added for 120 min (FIG. 7a). After 120 min almost all cells had no detectable ER-tubules anymore and instead were filled with large sheet-like structures. […] To test whether the morphological change is related to the inhibition of ER exit, next our set of FLI-06 derivatives was tested. […] Rather, the ER-sheets are indicative for structural changes, maybe initiated within ERES, that inhibit ER exit."}, "[5]": {"tested_on": "DND-41 cells", "assay": "Growth of DND-41 cells (FACS)", "format": "cell-based", "experimental": "FIG. 18: FLI-06 inhibits secretion of secreted alkaline phosphates; FLI-06 kills cancerous, Notch dependent T-cells. a) The secreted alkaline phosphatase (SEAP) assay was carried out. Medium was collected and SEAP secretion was measured via photometry. […] The cells were grown in suspension with the indicated amounts of FLI-06 or DMSO control and growth was determined via FACS analysis.\nTo test whether FLI-06 would ultimately be useful to treat cancerous diseases we incubated DND-41 cells having a Notch heterodimerization domain that leads to hyperactive Notch signaling (Weng et al, Science, 2004) with FLI-06."}, "[6]": {"tested_on": "BIP and ATF6", "details": "human, 24 h"}, "[7]": {"tested_on": "VSVG-EGFP", "format": "cell-based"}, "[8]": {"tested_on": "NotchΔE-EGFP", "assay": "cells", "format": "cell-based", "excerpt": "To identify novel regulatory factors involved in Notch trafficking/processing an image-based high content screen was set up. […] NotchΔE-EGFP is a direct substrate for γ-secretase at the PM, and under physiological conditions is proteolytically processed to NICD-EGFP that translocates into the nucleus (for scheme see FIG. 1b), resulting in a strong nuclear EGFP-staining in steady state^15 (FIG. 1d). […] Importantly, changes in subcellular localization of the reporter are amenable to quantitation by automated microscopy^15. Accordingly, reporter fluorescence was determined in the nucleus (nuc) and in a ring around the nucleus (enuc), and the ratio enuc/nuc was evaluated (schematized in FIG. 1c). Thereafter, the assay design was functionally validated. […] The assay also reliably detected trafficking defects in the secretory pathway. […] Taken together, the assay was validated for reliably detecting concentration and time dependent changes in trafficking and processing of the Notch reporter.\nCells were seeded in 96-well plates at a density of 5000 cells/well in 100 μl medium. The next day, 100 μl medium containing the respective test compounds was added. Cells were incubated for 16 h, fixed and processed for automated microscopy. For the putative gamma-secretase inhibitors the enuc intensity was divided by the DAPT control and for the trafficking inhibitors normalized percentage inhibition against DAPT/DMSO controls of log 2 transformed nuc/enuc ratios were calculated. Relative activity values were read into “R” (http://www.r-project.org/) and EC50 estimates were calculated using four-parameter log-logistic fit with the package “drc”^51.\nImages were acquired on an ArrayScan VTi automated microscope (ThermoFisher) and numerical data were extracted with the Compartmental Analysis BioApplication of the bundled software suite. Compound screening raw data were collected at the FMP and data transformation was performed according to standard procedures (ref 17 and supp. Refs 6-7)."}}}
{"compound": "CC1=C(C(=O)OC2CCCCC2)C(c2ccc([N+](=O)[O-])cc2)C2=C(CC(C)(C)CC2=O)N1", "note": "(centres unmarked) [FLI-06, Cyclohexyl 4-(4′-nitrophenyl)-2,7,7-trimethyl-5-oxo-1,4,5,6,7,8-hexahydroquinoline-3-carboxylate]", "values": [{"measurement": "budding of COPII vesicles after pretreatment of cells", "setting": "[1]; 100 μM FLI-06 in reaction", "value": "strongly"}, {"measurement": "budding of COPII vesicles after pretreatment of cells", "setting": "[1]; no FLI-06 in reaction", "value": "slightly inhibited"}, {"measurement": "COPII budding reaction, compound added directly to the assay", "setting": "[1]; no FLI-06 pretreatment of cells", "value": "did not inhibit the COPII budding reaction"}, {"measurement": "endocytosis of transferrin", "setting": "[2]", "value": "did not affect endocytosis"}, {"measurement": "Golgi integrity (giantin)", "setting": "[3]; 10 μM, 18 h", "value": "complete disruption of the Golgi"}, {"measurement": "time to loss of Golgi-like juxtanuclear βCOP staining", "setting": "[3]; 1 ig/ml BFA or 10 iM FLI-06", "value": "30 to 40", "unit": "min"}, {"measurement": "distribution of GM130 and TGN46", "setting": "[3]; 10 iM FLI-06 or 1 ig/ml BFA, 18 h", "value": "dispersal of the cis-Golgi marker GM130 and of the trans-Golgi network (TGN) marker TGN46"}, {"measurement": "hyperglycosylation of VSVG-EGFP", "setting": "[3]; 4 h at 40° C. with cycloheximide", "value": "did not cause a hyperglycosylation"}, {"measurement": "tubulation of endosomes", "setting": "[3]; Alexa555-transferrin labelled endosomes", "value": "did not cause tubulation of endosomes"}, {"measurement": "fusion of ER and Golgi", "setting": "[3]; prlss-KDEL-mRFP and B4GALT-EGFP markers", "value": "did not lead to fusion of ER and Golgi"}, {"measurement": "start of ER sheet-formation", "setting": "[4]; 10 μM FLI-06", "value": "5 to 10", "unit": "min"}, {"measurement": "t1/2 of ER sheet-formation", "setting": "[4]; 10 μM FLI-06", "value": "about 14 min"}, {"measurement": "ER tubule-to-sheets phenotype", "setting": "[4]; 10 iM, 2 h", "value": "elicited the tubule-to-sheets phenotype"}, {"measurement": "effect on DND-41 cells", "setting": "[5]; 1 μM", "value": "inhibited proliferation"}, {"measurement": "effect on DND-41 cells", "setting": "[5]; 10 μM", "value": "total cell death after 4 days"}, {"measurement": "ER-stress (BIP up-regulation, ATF6 luciferase)", "setting": "[6]", "value": "only very mild ER-stress after 24 h"}, {"measurement": "recruitment of VSVG-EGFP to ERES", "setting": "[7]", "value": "strongly reduced"}, {"measurement": "velocity of action on ER export", "setting": "[7]", "value": "acts instantaneously on ER export"}, {"measurement": "activity in NotchΔE-EGFP cells (enuc/nuc ratios)", "setting": "[8]; SAR and prior-art comparison, FIG. 5a/5b", "value": "equally active as the initial screening hit"}, {"measurement": "EC50", "setting": "[8]; assay not given, read-out: EC50 as secretion inhibitor", "value": 2300, "unit": "nM"}]}
